US12723063B2, “GIPR-agonist compounds” (Eli Lilly and Company, priority 2019, dated 2026)
*1 amine or outer side, *2 acyl side, *3 side chain or, on linkers, in order; H or OH if unused. Where a SMILES comes first, the peptide text is derived from it. Side-chain parts run from the residue outwards. [ ]: non-standard residue; d: D form. The star is where a group is joined. C20 diacid = O=C(O)CCCCCCCCCCCCCCCCCCC(=O)*; γGlu = O=C(O)[C@H](CCC(=O)[*:2])N[*:1]; 4Pal = N[C@@H](Cc1ccncc1)C(=O)O; αMeL = CC(C)C[C@](C)(N)C(=O)O; Orn = NCCC[C@H](N)C(=O)O; AEEA = NCCOCCOCC(=O)O; Aib = CC(C)(N)C(=O)O

Columns and labels:
human GcgR = target: T1, human GcgR (Homo sapiens, UniProt P47871); test: [125I]-Glucagon binding, SPA with WGA beads, 0.1% bacitracin; conditions: geometric mean, read-out: hGcgR Ki
T1 construct: expressed in transfected cells; crude membranes
Method in brief: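 SPA competition binding with WGA beads on crude membranes from HEK293 cells stably expressing hGcgR. Buffer: 25 mM HEPES pH 7.4, 2.5 mM CaCl2, 1 mM MgCl2, 0.1% bacitracin, 0.003% Tween-20; 10-point 3-fold dilutions, NSB with 1 μM Gcg.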

human GLP-1R = target: T2, human GLP-1R (Homo sapiens, UniProt P43220); test: [125I]-GLP-1 binding, SPA with WGA beads, 0.1% bacitracin; conditions: geometric mean, read-out: hGLP1R Ki
T2 construct: expressed in transfected cells; crude membranes
Method in brief: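 Binding buffer was 25 mM HEPES pH 7.4 with 2.5 mM CaCl2, 1 mM MgCl2, 0.1% (w/v) bacitracin, 0.003% Tween-20 and EDTA-free protease inhibitors. Four-parameter regression gave IC50, converted to Ki (geometric mean, SEM, n independent days).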

T1 sequence (P47871 26-477): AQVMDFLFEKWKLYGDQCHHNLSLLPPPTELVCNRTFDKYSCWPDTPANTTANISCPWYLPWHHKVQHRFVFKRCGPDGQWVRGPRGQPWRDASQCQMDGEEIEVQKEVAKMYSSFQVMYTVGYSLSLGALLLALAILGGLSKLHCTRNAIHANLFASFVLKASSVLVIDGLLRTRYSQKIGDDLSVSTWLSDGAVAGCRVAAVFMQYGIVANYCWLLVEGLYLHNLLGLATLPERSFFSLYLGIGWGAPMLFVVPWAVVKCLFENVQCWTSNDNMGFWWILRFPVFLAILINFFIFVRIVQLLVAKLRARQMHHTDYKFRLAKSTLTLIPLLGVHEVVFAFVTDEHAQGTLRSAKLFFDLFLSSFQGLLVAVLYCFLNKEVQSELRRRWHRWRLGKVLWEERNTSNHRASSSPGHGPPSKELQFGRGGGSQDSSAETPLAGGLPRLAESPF
T2 sequence (P43220 24-463): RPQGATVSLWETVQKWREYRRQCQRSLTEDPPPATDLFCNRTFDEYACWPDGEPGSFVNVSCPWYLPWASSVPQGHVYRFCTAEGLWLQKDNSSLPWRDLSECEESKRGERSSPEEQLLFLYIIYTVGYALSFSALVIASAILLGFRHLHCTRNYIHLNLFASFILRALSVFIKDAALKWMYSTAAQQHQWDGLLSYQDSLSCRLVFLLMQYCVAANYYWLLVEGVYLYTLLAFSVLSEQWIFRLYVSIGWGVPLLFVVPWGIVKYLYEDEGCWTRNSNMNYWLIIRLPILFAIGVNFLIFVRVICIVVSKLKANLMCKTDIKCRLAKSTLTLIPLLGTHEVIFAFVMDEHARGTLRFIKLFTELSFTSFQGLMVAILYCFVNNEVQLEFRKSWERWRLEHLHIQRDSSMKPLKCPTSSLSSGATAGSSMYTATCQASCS

Row | Compound | Ki (human GcgR) | Ki (human GLP-1R)
1 | CC[C@H](C)[C@H](NC(=O)[C@H](Cc1ccccc1)NC(=O)[C@@H](NC(=O)CNC(=O)[C@H](CCC(=O)O)NC(=O)C(C)(C)NC(=O)[C@@H](N)Cc1ccc(O)cc1)[C@@H](C)O)C(=O)N[C@@H](CO)C(=O)N[C@@H](CC(=O)O)C(=O)N[C@@H](Cc1ccc(O)cc1)C(=O)N[C@@H](CO)C(=O)N[C@H](C(=O)N[C@@](C)(CC(C)C)C(=O)N[C@@H](CC(C)C)C(=O)N[C@@H](CC(=O)O)C(=O)N[C@@H](CCCN)C(=O)N[C@@H](CCCCNC(=O)COCCOCCNC(=O)COCCOCCNC(=O)CC[C@H](NC(=O)CCCCCCCCCCCCCCCCCCC(=O)O)C(=O)O)C(=O)N[C@@H](Cc1c[nH]cn1)C(=O)N[C@@H](CCC(N)=O)C(=O)NC(C)(C)C(=O)N[C@@H](CC(=O)O)C(=O)N[C@@H](Cc1ccccc1)C(=O)N[C@H](C(=O)N[C@@H](CCC(=O)O)C(=O)N[C@@H](Cc1ccncc1)C(=O)N[C@@H](CC(C)C)C(=O)N[C@@H](CC(C)C)C(=O)N[C@@H](CCC(=O)O)C(=O)N[C@H](C(=O)NCC(=O)N1CCC[C@H]1C(=O)N[C@@H](CO)C(=O)N[C@@H](CO)C(=O)NCC(=O)N[C@@H](C)C(=O)N1CCC[C@H]1C(=O)N1CCC[C@H]1C(=O)N1CCC[C@H]1C(=O)N[C@@H](CO)C(N)=O)[C@@H](C)O)C(C)C)[C@@H](C)CC [Example 80] (H-Y[Aib]EGTFISDYSI[αMeL]LD[Orn]K([AEEA-AEEA-γGlu-C20 diacid])HQ[Aib]DFVE[4Pal]LLETGPSSGAPPPS-NH2) | > 958 nM | > 906 nM
2 | CC[C@H](C)[C@H](NC(=O)[C@H](Cc1ccccc1)NC(=O)[C@@H](NC(=O)CNC(=O)[C@H](CCC(=O)O)NC(=O)C(C)(C)NC(=O)[C@@H](N)Cc1ccc(O)cc1)[C@@H](C)O)C(=O)N[C@@H](CO)C(=O)N[C@@H](CC(=O)O)C(=O)N[C@@H](Cc1ccc(O)cc1)C(=O)N[C@@H](CO)C(=O)N[C@H](C(=O)N[C@@](C)(CC(C)C)C(=O)N[C@@H](CC(C)C)C(=O)N[C@@H](CC(=O)O)C(=O)N[C@@H](CCCN)C(=O)N[C@@H](CCCCNC(=O)COCCOCCNC(=O)COCCOCCNC(=O)CC[C@H](NC(=O)CCCCCCCCCCCCCCCCCCC(=O)O)C(=O)O)C(=O)N[C@@H](Cc1c[nH]cn1)C(=O)N[C@@H](CCC(N)=O)C(=O)NC(C)(C)C(=O)N[C@@H](CC(=O)O)C(=O)N[C@@H](Cc1ccccc1)C(=O)N[C@H](C(=O)N[C@@H](CCC(=O)O)C(=O)N[C@@H](Cc1ccncc1)C(=O)N[C@@H](CC(C)C)C(=O)N[C@@H](CC(C)C)C(=O)N[C@@H](CCC(=O)O)C(=O)N[C@@H](CCC(N)=O)C(=O)NCC(=O)N1CCC[C@H]1C(=O)N[C@@H](CO)C(=O)N[C@@H](CO)C(=O)NCC(=O)N[C@@H](C)C(=O)N1CCC[C@H]1C(=O)N1CCC[C@H]1C(=O)N1CCC[C@H]1C(=O)N[C@@H](CO)C(N)=O)C(C)C)[C@@H](C)CC [Example 81] (H-Y[Aib]EGTFISDYSI[αMeL]LD[Orn]K([AEEA-AEEA-γGlu-C20 diacid])HQ[Aib]DFVE[4Pal]LLEQGPSSGAPPPS-NH2) | 699 nM | 714 nM
3 | CC[C@H](C)[C@H](NC(=O)[C@H](Cc1ccccc1)NC(=O)[C@@H](NC(=O)CNC(=O)[C@H](CCC(=O)O)NC(=O)C(C)(C)NC(=O)[C@@H](N)Cc1ccc(O)cc1)[C@@H](C)O)C(=O)N[C@@H](CO)C(=O)N[C@@H](CC(=O)O)C(=O)N[C@@H](Cc1ccc(O)cc1)C(=O)N[C@@H](CO)C(=O)N[C@H](C(=O)N[C@@](C)(CC(C)C)C(=O)N[C@@H](CC(C)C)C(=O)N[C@@H](CC(=O)O)C(=O)N[C@@H](CCCN)C(=O)N[C@@H](CCCCNC(=O)COCCOCCNC(=O)COCCOCCNC(=O)CC[C@H](NC(=O)CCCCCCCCCCCCCCCCCCC(=O)O)C(=O)O)C(=O)N[C@@H](Cc1c[nH]cn1)C(=O)N[C@@H](CCC(N)=O)C(=O)NC(C)(C)C(=O)N[C@@H](CC(=O)O)C(=O)N[C@@H](Cc1ccccc1)C(=O)N[C@H](C(=O)N[C@@H](CCC(=O)O)C(=O)N[C@@H](Cc1ccncc1)C(=O)N[C@@H](CC(C)C)C(=O)N[C@@H](CC(C)C)C(=O)N[C@@H](CCC(=O)O)C(=O)NCC(=O)NCC(=O)N1CCC[C@H]1C(=O)N[C@@H](CO)C(=O)N[C@@H](CO)C(=O)NCC(=O)N[C@@H](C)C(=O)N1CCC[C@H]1C(=O)N1CCC[C@H]1C(=O)N1CCC[C@H]1C(=O)N[C@@H](CO)C(N)=O)C(C)C)[C@@H](C)CC [Example 82] (H-Y[Aib]EGTFISDYSI[αMeL]LD[Orn]K([AEEA-AEEA-γGlu-C20 diacid])HQ[Aib]DFVE[4Pal]LLEGGPSSGAPPPS-NH2) | 305 nM | 388 nM
4 | CC[C@H](C)[C@H](NC(=O)[C@H](Cc1ccccc1)NC(=O)[C@@H](NC(=O)CNC(=O)[C@H](CCC(=O)O)NC(=O)C(C)(C)NC(=O)[C@@H](N)Cc1ccc(O)cc1)[C@@H](C)O)C(=O)N[C@@H](CO)C(=O)N[C@@H](CC(=O)O)C(=O)N[C@@H](Cc1ccc(O)cc1)C(=O)N[C@@H](CO)C(=O)N[C@H](C(=O)N[C@@](C)(CC(C)C)C(=O)N[C@@H](CC(C)C)C(=O)N[C@@H](CC(=O)O)C(=O)N[C@@H](CCC(=O)O)C(=O)N[C@@H](CCCCNC(=O)COCCOCCNC(=O)COCCOCCNC(=O)CC[C@H](NC(=O)CCCCCCCCCCCCCCCCCCC(=O)O)C(=O)O)C(=O)N[C@@H](Cc1c[nH]cn1)C(=O)N[C@@H](CCC(N)=O)C(=O)NC(C)(C)C(=O)N[C@@H](CC(=O)O)C(=O)N[C@@H](Cc1ccccc1)C(=O)N[C@H](C(=O)N[C@@H](CCC(=O)O)C(=O)N[C@@H](Cc1ccncc1)C(=O)N[C@@H](CC(C)C)C(=O)N[C@@H](CC(C)C)C(=O)N[C@@H](C)C(=O)N[C@H](C(=O)NCC(=O)N1CCC[C@H]1C(=O)N[C@@H](CO)C(=O)N[C@@H](CO)C(=O)NCC(=O)N[C@@H](C)C(=O)N1CCC[C@H]1C(=O)N1CCC[C@H]1C(=O)N1CCC[C@H]1C(=O)N[C@@H](CO)C(N)=O)[C@@H](C)O)C(C)C)[C@@H](C)CC [Example 83] (H-Y[Aib]EGTFISDYSI[αMeL]LDEK([AEEA-AEEA-γGlu-C20 diacid])HQ[Aib]DFVE[4Pal]LLATGPSSGAPPPS-NH2) | > 958 nM | 452 nM
5 | CC[C@H](C)[C@H](NC(=O)[C@H](Cc1ccccc1)NC(=O)[C@@H](NC(=O)CNC(=O)[C@H](CCC(=O)O)NC(=O)C(C)(C)NC(=O)[C@@H](N)Cc1ccc(O)cc1)[C@@H](C)O)C(=O)N[C@@H](CO)C(=O)N[C@@H](CC(=O)O)C(=O)N[C@@H](Cc1ccc(O)cc1)C(=O)N[C@@H](CO)C(=O)N[C@H](C(=O)N[C@@](C)(CC(C)C)C(=O)N[C@@H](CC(C)C)C(=O)N[C@@H](CC(=O)O)C(=O)N[C@@H](CCC(=O)O)C(=O)N[C@@H](CCCCNC(=O)COCCOCCNC(=O)COCCOCCNC(=O)CC[C@H](NC(=O)CCCCCCCCCCCCCCCCCCC(=O)O)C(=O)O)C(=O)N[C@@H](Cc1c[nH]cn1)C(=O)N[C@@H](CCC(N)=O)C(=O)NC(C)(C)C(=O)N[C@@H](CC(=O)O)C(=O)N[C@@H](Cc1ccccc1)C(=O)N[C@H](C(=O)N[C@@H](CCC(=O)O)C(=O)N[C@@H](Cc1ccncc1)C(=O)N[C@@H](CC(C)C)C(=O)N[C@@H](CC(C)C)C(=O)N[C@@H](C)C(=O)N[C@@H](CCC(N)=O)C(=O)NCC(=O)N1CCC[C@H]1C(=O)N[C@@H](CO)C(=O)N[C@@H](CO)C(=O)NCC(=O)N[C@@H](C)C(=O)N1CCC[C@H]1C(=O)N1CCC[C@H]1C(=O)N1CCC[C@H]1C(=O)N[C@@H](CO)C(N)=O)C(C)C)[C@@H](C)CC [Example 84] (H-Y[Aib]EGTFISDYSI[αMeL]LDEK([AEEA-AEEA-γGlu-C20 diacid])HQ[Aib]DFVE[4Pal]LLAQGPSSGAPPPS-NH2) | > 958 nM | 325 nM
